Data taken from patent publication EP4763838A1, “COMPOUND AND USE THEREOF” (Ocean University of China, priority 2023, dated 2025).
Several values for one entry are separate records, joined by “and”; a condition that tells them apart may be missing. Equal entries are not always repeated. Structures can show the parent of a compound that is named as a salt. Where two headings read alike, the source gives them in different places.

Experiments:
androgen receptor (AR) = molecular target: T1, androgen receptor (AR) (Homo sapiens, UniProt P10275, T878A); experiment: Reduction of androgen receptor (AR) expression levels in LNCaP cells (Western blot, DC50 and Dmax); assay type: cell-based; details: 24 h of treatment, 0.01, 0.1, 1 and 10 µM, α-tubulin internal reference
T1 construct: endogenous in cells; host or cells: LNCaP
Procedure: The human prostate cancer cell line LNCaP cells selected in this experiment were cultured in an RPMI-1640 culture medium containing 10% fetal bovine serum (Gibco, USA) in an incubator under the conditions of 37°C, 5% CO2 and 95% humidity. When the growth density reached 80%, the cells were inoculated into a 6-well plate with 5×10^5 cells per well. After culturing for 24 h, the culture medium was replaced with a culture medium containing the compounds so that the final concentrations of the compounds were 0.01, 0.1, 1 and 10 µM. After 24 h of treatment, the supernatant was removed, the cells were washed twice with PBS, and a RIPA lysis buffer containing a protease inhibitor and a phosphatase inhibitor was added to the cells. After lysis and centrifugation, the total protein extract was obtained. The concentration of the protein in the extract was determined by using the BCA method.
Protein electrophoresis was performed by using SDS-PAGE, followed by electrotransfer at a constant current of 200 mA for 90 min to transfer proteins onto the PVDF membrane. The PVDF membrane was placed in 5% skim milk and blocked for 1 h at room temperature. An anti-Androgen Receptor antibody [EPR1535(2)] (ab133273)(1:10000) was added for incubation overnight at 4°C. The membrane was washed with TBST for 3 times, with 10 min each time. The mixture of the membrane and a secondary antibody were incubated for 60 min at room temperature. The membrane was washed with TBST for 3 times, with 10 min each time. The ECL light-emitting liquid was dropwise added for exposure. Each sample was simultaneously detected using α-tubulin protein as an internal reference. The protein profile was analyzed for grayscale values using analysis software ImageJ. The gray scale correction value of each sample was calculated by using the formula: gray scale correction value = (gray scale value of the target protein/gray scale value of the corresponding internal reference) […] 10^3. Then, the calculated gray scale correction value was compared with a control gray scale correction value to calculate a degradation rate. Then, nonlinear curve fitting was performed on a logarithmic concentration-inhibition rate using Prism to obtain the DC50 and Dmax values of the compound.
Table 14 summarizes the evaluation of protein degraders PRTA-01 to 06 in reducing AR protein expression levels. DC50 represents the concentration of the protein degrader when it induces AR protein degradation to 50% of the initial level, and the level is classified as A (DC50<1 µM), B (DC50 1~10 µM), or C (DC50>10 µM). Dmax represents the proportion of the maximum degree of […] protein degradation induced by the protein degrader to the total AR protein amount, with the level graded as A (Dmax>85%), B (Dmax85-50%), or C (Dmax<50%). Table 14 Evaluation of protein degraders PRTA-01 to 06 in reducing AR protein expression levels

E3 ubiquitin ligase CRBN = molecular target: T2, E3 ubiquitin ligase CRBN (Homo sapiens, UniProt Q96SW2); experiment: Binding activity to E3 ubiquitin ligase CRBN (HTRF competitive binding with XL665-labeled thalidomide, Cereblon binding kit); details: competition with XL665-labeled thalidomide for GST-labelled CRBN protein, 3 h at room temperature
T2 construct: purchased PE (PerkinElmer) 64BDCRBNPEG
Procedure: The binding activity of the compound disclosed in the present patent to the E3 ubiquitin ligase CRBN was determined by competitive binding of the disclosed compound with XL665-labeled thalidomide to the CRBN protein, thereby preventing the occurrence of fluorescence resonance energy transfer (FRET). Accordingly, the binding affinity of the compound to the CRBN protein was determined.
CRBN binding activity test kit (CEREBLON BINDING KITS (PE, 64BDCRBNPEG)).
The assay was based on a homogeneous time-resolved fluorescence (HTRF) technology. When a donor and an acceptor were in close proximity, the donor transferred energy to the acceptor so that the acceptor was excited to emit an emission light 665 nm.
The donor used in the kit of the present disclosure was a europium-labeled GST antibody (GST Eu Cryptate Antibody), and the acceptor was thalidomide labeled with XL665 (Thalidomide-Red reagent). The donor bound to the CRBN protein comprising a GST label. The compound disclosed in the present patent competitively bound to the CRBN protein with thalidomide. The binding activity of the compound was determined according to the fluorescence value emitted by the acceptor at 665 nm. The stronger binding force of the compound indicated the weaker signal.
The donor and the acceptor were diluted 50-fold respectively by using a kit buffer (PROTAC binding buffer 1). The CRBN protein was diluted 45-fold. The 8 mM solution of the compound disclosed in the present patent was diluted 10-fold with 1X diluent from the kit, followed by 5-fold serial dilutions for a total of 7 consecutive dilutions.
5 µl of compound, 5 µl of diluted CRBN protein and 10 µl of donor-acceptor isovolumetric mixture were sequentially added to each well of a white 384-well plate (PE, Part number:6008280). The above system was incubated for 3 h at room temperature.
A ratio of acceptor to donor emission signals for each individual well was calculated. Ratio = signal value at 665 nm/signal value at 620 nm * 10^4 Coefficient of variation (CV) = standard deviation (SD)/average Ratio × 100 [formula]
The IC50 value was calculated based on the compound concentration, Ratio and the coefficient of variation by using GraphPad Prism. Table 10 Binding activity of compounds 1-18 to E3 ubiquitin ligase CRBN

| SMILES | IC50 (E3 ubiquitin ligase CRBN) [µM] | further results |
| --- | --- | --- |
| N#Cc1ccc(OC2CCC(NC(=O)c3ccc(N4CCC(CN5CCN(c6ccc(C7CCC(=O)NC7=O)nn6)CC5)CC4)nn3)CC2)cc1Cl (stereo not shown) [PRTA-02] | – | DC50 (androgen receptor (AR)): < 1 µM; Dmax (androgen receptor (AR)): > 85% |
| N#Cc1ccc(O[C@H]2CC[C@H](NC(=O)c3ccc(N4CCC(CN5CCN(c6ccc(N7CCC(=O)NC7=O)nn6)CC5)CC4)nn3)CC2)cc1Cl [PRTA-03] | – | DC50 (androgen receptor (AR)): < 1 µM; Dmax (androgen receptor (AR)): > 85% |
| Cc1cc(N2CCN(CC3CCN(c4ccc(C(=O)N[C@H]5CC[C@H](Oc6ccc(C#N)c(Cl)c6)CC5)nn4)CC3)CC2)nnc1C1CCC(=O)NC1=O (stereo partly shown) [PRTA-04] | – | DC50 (androgen receptor (AR)): 1 to 10 µM; Dmax (androgen receptor (AR)): 50 to 85% |
| N#Cc1ccc(O[C@H]2CC[C@H](NC(=O)c3ccc(N4CCN(CC5CCN(c6ccc(C7CCC(=O)NC7=O)nn6)CC5)CC4)cc3)CC2)cc1Cl (stereo partly shown) [PRTA-01] | – | DC50 (androgen receptor (AR)): < 1 µM; Dmax (androgen receptor (AR)): 50 to 85% |
| N#Cc1ccc(O[C@H]2CC[C@H](NC(=O)c3ccc(N4CCC(n5cc(C#Cc6ccc(C7CCC(=O)NC7=O)nn6)cn5)CC4)cc3)CC2)cc1Cl (stereo partly shown) [PRTA-06] | – | DC50 (androgen receptor (AR)): < 1 µM; Dmax (androgen receptor (AR)): > 85% |
| COc1ccc(C2CCC(=O)NC2=O)nn1 (stereo not shown) [Compound 8, 3-(6-methoxypyridazin-3-yl) piperidine-2,6-dione] | 50 | – |
| Cc1cc(N2CCNCC2)nnc1C1CCC(=O)NC1=O (stereo not shown) [Compound 9, 3-(4-methyl-6-(piperazin-1-yl)pyridazin-3-yl)piperidine-2,6-dione hydrochloride salt] | 50 | – |
| N#Cc1cc(N2CCNCC2)nnc1C1CCC(=O)NC1=O (stereo not shown) [Compound 14, 3-(2,6-dioxopiperidin-3-yl) -6-(piperazin-1-yl)pyridazine-4-carbonitrile hydrochloride salt] | 50 | – |
| CCc1cc(C2CCC(=O)NC2=O)nnc1N1CCNCC1 (stereo not shown) [Compound 22, 3-(5-ethyl-6-(piperazin-1-yl)pyridazin-3-yl)piperidine-2,6-dione hydrochloride salt] | > 50 | – |
| CN(C)Cc1cc(N2CCNCC2)nnc1C1CCC(=O)NC1=O (stereo not shown) [Compound 18, 3-(4-((dimethylamino)methyl)-6-(piperazin-1-yl)pyridazin-3-yl)piperidine-2,6-dionebis hydrochloride salt] | – | IC50 (E3 ubiquitin ligase CRBN; read-out: IC50): > 50 µM and 100 µM |
| O=C1CCC(c2cc(F)c(N3CCNCC3)nn2)C(=O)N1 (stereo not shown) [Compound 25, 3-(5-fluoro-6-(piperazin-1-yl)pyridazin-3-yl)piperidine-2,6-dione hydrochloride salt] | 50 | – |
| O=C1CCC(c2nnc(N3CCNCC3)cc2-c2ccccc2)C(=O)N1 (stereo not shown) [Compound 19, 3-(4-phenyl-6-(piperazin-1-yl)pyridazin-3-yl)piperidine-2,6-dione hydrochloride salt] | > 100 | – |
| O=C1CCC(c2nnc(N3CCNCC3)cc2F)C(=O)N1 (stereo not shown) [Compound 13, 3-(4-fluoro-6-(piperazin-1-yl)pyridazin-3-yl)piperidine-2,6-dione hydrochloride salt] | 50 | – |
| COc1cc(N2CCNCC2)nnc1C1CCC(=O)NC1=O (stereo not shown) [Compound 16, 3-(4-methoxy-6-(piperazin-1-yl)pyridazin-3-yl)piper idine-2,6-dione hydrochloride salt] | 50 | – |
| N#Cc1ccc(O[C@H]2CC[C@H](NC(=O)c3ccc(N4CCC(CN5CC6(C5)CN(c5ccc(C7CCC(=O)NC7=O)nn5)C6)CC4)cc3)CC2)cc1Cl (stereo partly shown) [PRTA-05] | – | DC50 (androgen receptor (AR)): < 1 µM; Dmax (androgen receptor (AR)): 50 to 85% |
| CN1C(=O)CCC(c2ccc(N3CCNCC3)nn2)C1=O (stereo not shown) [Compound 43, 1-methyl-3-(6-(piperazin-1-yl)pyridazin-3-yl)piperidine-2,6-dione hydrochloride salt] | > 100 | – |
| O=C1CCC(c2ccc(N3CCC[C@H]3CO)nn2)C(=O)N1 (stereo partly drawn) [Compound 6, 3-(6-((S)-2-(hydroxymethyl)pyrrolidin-1-yl)pyridazin-3-yl)piperidine-2,6-dione] | 50 | – |
| N#Cc1cc(C2CCC(=O)NC2=O)nnc1N1CCNCC1 (stereo not shown) [Compound 26, 6-(2,6-dioxopiperidin-3-yl) -3-(piperazin-1-yl)pyridazine-4-carbonitrile hydrochloride salt] | 50 | – |
| O=C1CCN(c2ccc(N3CCNCC3)nn2)C(=O)N1 [Compound 40, 1-(6-(piperazin-1-yl)pyridazin-3-yl)dihydropyrimidine-2,4(1H,3H)-dione hydrochloride salt] | 50 | – |
| COc1cc(C2CCC(=O)NC2=O)nnc1N1CCNCC1 (stereo not shown) [Compound 28, 3-(5-methoxy-6-(piperazin-1-yl)pyridazin-3-yl)piper idine-2,6-dione hydrochloride salt] | 50 | – |
| CN(C)Cc1cc(C2CCC(=O)NC2=O)nnc1N1CCNCC1 (stereo not shown) [Compound 30, 3-(5-((dimethylamino)methyl)-6-(piperazin-1-yl)pyridazin-3-yl)piperidine-2,6-dione bis-hydrochloride salt] | – | IC50 (E3 ubiquitin ligase CRBN; read-out: IC50): > 50 µM and 100 µM |
| Cc1c(C2CCC(=O)NC2=O)nnc(N2CCNCC2)c1C (stereo not shown) [Compound 33, 3-(4,5-dimethyl-6-(piperazin-1-yl)pyridazin-3-yl)pip eridine-2,6-dione hydrochloride salt] | 50 | – |
